According to PMC8776995 (Frontiers in Chemistry, 2022):
“And” between values parts separate entries of the source, which are not always exact repeats. Equal values may be shown once. Read-outs that look alike come from different tables or passages of the source.

Columns and labels:
wild-type EGFR = wild-type EGFR (Homo sapiens, UniProt P00533); test: EGFR kinase assay (ELISA); conditions: for IC50: IC50 (μM) EGFR, ELISA, 3 μmol/L ATP; for A450: raw ELISA absorbance
H460 cells = test: CCK-8 antiproliferation assay, H460
Experimental: The compounds were dissolved in DMSO to make a 20 μM stock solution and diluted to the concentration of working solutions with complete growth medium before administration.
Cells were seeded in 96-well plates: 3,000–5,000 cells/well in 100 ul. One day after seeding, the test compounds at concentration between 1.0 and 16.0 μ M or 0.1% DMSO (as control) were added to cells in triplicate. 48 h later, CCK-8 was added and incubated the plate for 1–4 h in the incubator. The absorbance at 450 nm were measured using a microplate reader (Bio-Tek).

A549 cells = test: CCK-8 antiproliferation assay, A549; conditions: for Inhibitory efficacy: A549 cells; for Inhibitory efficacy / inhibition at 1 µM / inhibition at 2 µM / inhibition at 4 µM / inhibition at 8 µM / inhibition at 16 µM: given as fraction, Repeat 1-3; for inhibition at 1 µM / inhibition at 2 µM / inhibition at 4 µM / inhibition at 8 µM / inhibition at 16 µM: A549, read-out: Inhibitory efficacy, A549 cells
PC-9 cells = test: CCK-8 antiproliferation assay, PC-9; conditions: for IC50: PC-9, 48 h, read-out: IC50 (μM) PC-9; for inhibition at 4 µM: PC-9, read-out: Inhibitory efficacy, PC-9, 4uM, single repeats (Repeat 1-3), given as fraction; for inhibition at 16 µM: PC-9, read-out: Inhibitory efficacy, PC-9, 16uM, single repeats (Repeat 1-3), given as fraction; for Inhibitory efficacy: single repeats (Repeat 1-3), given as fraction
H1975 cells = test: CCK-8 antiproliferation assay, H1975; conditions: for Inhibitory efficacy: H1975 cells
[1] = 1uM, given as fraction, Repeat 1-3
[2] = 4uM, given as fraction, Repeat 1-3
[3] = 8uM, given as fraction, Repeat 1-3
[4] = 16uM, given as fraction, Repeat 1-3
[5] = Homo sapiens, NCI-H1975, 48 h, read-out: IC50 (μM) H1975, CCK-8, 48 h, average ± SD of three independent experiments
[6] = Homo sapiens, NCI-H1975, read-out: Inhibitory efficacy, H1975 cells, 1uM, given as fraction, Repeat 1-3
[7] = Homo sapiens, NCI-H1975, read-out: Inhibitory efficacy, H1975 cells, 4uM, given as fraction, Repeat 1-3
[8] = Homo sapiens, NCI-H1975, read-out: Inhibitory efficacy, H1975 cells, 8uM, given as fraction, Repeat 1-3
[9] = Homo sapiens, NCI-H1975, read-out: Inhibitory efficacy, H1975 cells, 16uM, given as fraction, Repeat 1-3

wild-type EGFR, sequence (P00533 25-1210): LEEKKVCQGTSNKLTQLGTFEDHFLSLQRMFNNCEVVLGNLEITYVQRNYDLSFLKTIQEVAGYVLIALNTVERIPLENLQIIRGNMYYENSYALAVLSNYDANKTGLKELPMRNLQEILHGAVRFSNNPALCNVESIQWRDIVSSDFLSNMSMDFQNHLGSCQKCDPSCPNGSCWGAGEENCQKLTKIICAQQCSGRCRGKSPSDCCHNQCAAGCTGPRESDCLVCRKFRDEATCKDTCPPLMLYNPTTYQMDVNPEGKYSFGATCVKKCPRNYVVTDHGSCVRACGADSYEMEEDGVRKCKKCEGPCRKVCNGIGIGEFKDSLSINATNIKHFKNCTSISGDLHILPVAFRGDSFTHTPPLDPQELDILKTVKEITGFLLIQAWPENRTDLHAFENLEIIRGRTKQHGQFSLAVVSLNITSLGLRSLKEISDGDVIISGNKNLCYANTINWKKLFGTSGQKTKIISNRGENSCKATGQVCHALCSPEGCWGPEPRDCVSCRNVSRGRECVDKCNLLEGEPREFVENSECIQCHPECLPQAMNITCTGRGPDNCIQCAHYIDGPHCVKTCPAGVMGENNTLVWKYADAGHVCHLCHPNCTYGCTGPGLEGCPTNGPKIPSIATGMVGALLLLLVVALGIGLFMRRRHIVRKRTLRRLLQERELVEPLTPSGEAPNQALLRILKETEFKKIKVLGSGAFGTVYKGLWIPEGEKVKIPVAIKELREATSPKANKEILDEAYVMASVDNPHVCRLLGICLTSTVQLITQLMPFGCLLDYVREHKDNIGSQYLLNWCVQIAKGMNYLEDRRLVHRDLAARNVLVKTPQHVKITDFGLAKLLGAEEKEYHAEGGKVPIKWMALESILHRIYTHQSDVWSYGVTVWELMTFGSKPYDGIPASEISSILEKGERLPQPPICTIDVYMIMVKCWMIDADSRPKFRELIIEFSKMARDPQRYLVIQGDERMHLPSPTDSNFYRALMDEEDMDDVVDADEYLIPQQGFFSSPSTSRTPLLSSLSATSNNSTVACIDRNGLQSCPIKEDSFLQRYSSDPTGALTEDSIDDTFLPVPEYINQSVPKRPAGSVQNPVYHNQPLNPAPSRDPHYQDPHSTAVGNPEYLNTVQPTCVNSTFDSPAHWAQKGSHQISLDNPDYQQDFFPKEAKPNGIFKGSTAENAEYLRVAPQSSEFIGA

In the case of `COCCOc1cc2ncnc(Nc3cccc(-c4cn(-c5ccccc5Br)nn4)c3)c2cc1OCCOC` [e9, [6,7-Bis-(2-methoxy-ethoxy)-quinazolin-4-yl]-{3-[1-(2-bromo-phenyl)-1H-[1,2,3]triazol-4-yl]-phenyl}-amine], the melting point is reported as 93 to 97 °C, the inhibition at 0.0003 µM (wild-type EGFR; 0.3 nM, duplicate wells, calculated from A450) is reported as 0.816% and the Inhibition (wild-type EGFR; 0.3 nM, duplicate wells, calculated from A450, 0.0003 µM) is reported as 0.7055. The inhibition at 3 µM (wild-type EGFR; 3000 nM, duplicate wells, calculated from A450) was 41.4%, the Inhibition (wild-type EGFR; 3000 nM, duplicate wells, calculated from A450, 3 µM) was 44.4444 and the inhibition at 30 µM (wild-type EGFR; 30000 nM, duplicate wells, calculated from A450) was 89.8%. The Inhibition (wild-type EGFR; 30000 nM, duplicate wells, calculated from A450, 30 µM) was 89.9471, the IC50 (wild-type EGFR) was 3.83 µM and the Inhibitory efficacy (H460 cells; H460, 2uM, single repeats (Repeat 1-3), given as fraction, 2 µM) was 0.3746 and 0.3508. The Inhibitory efficacy (H460 cells; H460, 4uM, single repeats (Repeat 1-3), given as fraction, 4 µM) was 0.6113 and 0.6209, the Inhibitory efficacy (H460 cells; H460, 8uM, single repeats (Repeat 1-3), given as fraction, 8 µM) was 0.7678 and 0.7392 and the Inhibitory efficacy (H460 cells; H460, 16uM, single repeats (Repeat 1-3), given as fraction, 16 µM) was 0.7559 and 0.7615. For the same molecule, the inhibition at 2 µM (H460 cells; Homo sapiens, NCI-H460, read-out: Inhibitory efficacy, H460, 2uM, single repeats (Repeat 1-3), given as fraction) was 40.3%, the inhibition at 4 µM (H460 cells; Homo sapiens, NCI-H460, read-out: Inhibitory efficacy, H460, 4uM, single repeats (Repeat 1-3), given as fraction) was 72.6% and the inhibition at 8 µM (H460 cells; Homo sapiens, NCI-H460, read-out: Inhibitory efficacy, H460, 8uM, single repeats (Repeat 1-3), given as fraction) was 76.5%. The inhibition at 16 µM (H460 cells; Homo sapiens, NCI-H460, read-out: Inhibitory efficacy, H460, 16uM, single repeats (Repeat 1-3), given as fraction) was 77.3%, the Inhibitory efficacy (A549 cells; 1uM) was 0.1197 and 0.1367 and the Inhibitory efficacy (A549 cells; 2uM) was 0.3287 and 0.2555. The Inhibitory efficacy (A549 cells; 4uM) was 0.8462 and 0.8405, the Inhibitory efficacy (A549 cells; 8uM) was 0.9628 and 0.9656 and the Inhibitory efficacy (A549 cells; 16uM) was 0.9642 and 0.9671. The inhibition at 1 µM (A549 cells; Homo sapiens, 1uM) was 16%, the inhibition at 2 µM (A549 cells; Homo sapiens, 2uM) was 26.7% and the inhibition at 4 µM (A549 cells; Homo sapiens, 4uM) was 82.8%. The inhibition at 8 µM (A549 cells; Homo sapiens, 8uM) was 95.9%, the inhibition at 16 µM (A549 cells; Homo sapiens, 16uM) was 96.6% and the IC50 (PC-9 cells; Homo sapiens) was 7.63 ± 1.69 µM. The inhibition at 4 µM (PC-9 cells; Homo sapiens) was 42.1%, the inhibition at 8 µM (PC-9 cells; Homo sapiens, PC-9, read-out: Inhibitory efficacy, PC-9, 8uM, single repeats (Repeat 1-3), given as fraction) was 57.9% and the inhibition at 16 µM (PC-9 cells; Homo sapiens) was 54.2%. The Inhibitory efficacy (PC-9 cells; PC-9, 4uM, 4 µM) was 0.4231 and 0.428, the Inhibitory efficacy (PC-9 cells; PC-9, 8uM, 8 µM) was 0.5458 and 0.6686 and the Inhibitory efficacy (PC-9 cells; PC-9, 16uM, 16 µM) was 0.5655 and 0.5078. For the same molecule, the Inhibitory efficacy (H1975 cells; [1]) was 0.171 and 0.2074, the Inhibitory efficacy (H1975 cells; [2]) was 0.4371 and 0.3791 and the Inhibitory efficacy (H1975 cells; [3]) was 0.5337 and 0.5679. The Inhibitory efficacy (H1975 cells; [4]) was 0.6418 and 0.6475, the IC50 (H1975 cells; [5]) was < 10 µM and the inhibition at 1 µM (H1975 cells; [6]) was 15.5%. The inhibition at 4 µM (H1975 cells; [7]) was 37.6%, the inhibition at 8 µM (H1975 cells; [8]) was 58% and the inhibition at 16 µM (H1975 cells; [9]) was 66.8%. For the same molecule, the IC50 (H1975 cells; read-out: IC50 (μM) H1975, CCK-8, 48 h, average ± SD of three independent experiments) was 6.86 ± 0.17 µM.
`COCCOc1cc2ncnc(Nc3cccc(-c4cn(-c5ccc(Br)cc5)nn4)c3)c2cc1OCCOC` [e10, [6,7-Bis-(2-methoxy-ethoxy)-quinazolin-4-yl]-{3-[1-(4-bromo-phenyl)-1H-[1,2,3]triazol-4-yl]-phenyl}-amine] showed a melting point of 105 to 108 °C, an IC50 (wild-type EGFR) of 2.13 µM and an inhibition at 30 pM (wild-type EGFR; concentration 0.03 nM, one value per replicate column) of 4.76%. For the same molecule, the Inhibition (wild-type EGFR; concentration 0.03 nM, one value per replicate column, 3e-05 µM) was 5.109, the inhibition at 0.0003 µM (wild-type EGFR; concentration 0.3 nM, one value per replicate column) was 11.4% and the Inhibition (wild-type EGFR; concentration 0.3 nM, one value per replicate column, 0.0003 µM) was 10.9489. For the same molecule, the inhibition at 0.003 µM (wild-type EGFR; concentration 3 nM, one value per replicate column) was 15.7%, the Inhibition (wild-type EGFR; concentration 3 nM, one value per replicate column, 0.003 µM) was 10.9489 and the inhibition at 0.03 µM (wild-type EGFR; concentration 30 nM, one value per replicate column) was 21.1%. It also gave an Inhibition (wild-type EGFR; concentration 30 nM, one value per replicate column, 0.03 µM) of 11.3139, an inhibition at 0.3 µM (wild-type EGFR; concentration 300 nM, one value per replicate column) of 36.5% and an Inhibition (wild-type EGFR; concentration 300 nM, one value per replicate column, 0.3 µM) of 39.9635. The inhibition at 3 µM (wild-type EGFR; concentration 3000 nM, one value per replicate column) was 38.4%, the Inhibition (wild-type EGFR; concentration 3000 nM, one value per replicate column, 3 µM) was 48.1752 and the inhibition at 30 µM (wild-type EGFR; concentration 30000 nM, one value per replicate column) was 78.1%. The Inhibition (wild-type EGFR; concentration 30000 nM, one value per replicate column, 30 µM) was 77.5547, the A450 (wild-type EGFR; concentration 0.0001 nM) was 0.787 and 0.697 and the A450 (wild-type EGFR; concentration 0.03 nM) was 0.757 and 0.669. For the same molecule, the A450 (wild-type EGFR; concentration 0.3 nM) was 0.715 and 0.637, the A450 (wild-type EGFR; concentration 3 nM) was 0.688 and 0.637 and the A450 (wild-type EGFR; concentration 30 nM) was 0.654 and 0.635. The A450 (wild-type EGFR; concentration 300 nM) was 0.557 and 0.478, the A450 (wild-type EGFR; concentration 3000 nM) was 0.545 and 0.433 and the A450 (wild-type EGFR; concentration 30000 nM) was 0.295 and 0.272. The Inhibitory efficacy (H460 cells; H460 cells, 2uM, given as fraction, Repeat 1-3) was 0.07707 and 0.09653, the Inhibitory efficacy (H460 cells; H460 cells, 8uM, given as fraction, Repeat 1-3) was 0.3228 and 0.2533 and the Inhibitory efficacy (H460 cells; H460 cells, 16uM, given as fraction, Repeat 1-3) was 0.4853 and 0.4952. It also gave an IC50 (H460 cells; Homo sapiens, NCI-H460, 48 h, read-out: IC50 (μM) H460, CCK-8, 48 h, average ± SD of three independent experiments) of 15 ± 2.1 µM, an inhibition at 2 µM (H460 cells; Homo sapiens, NCI-H460, read-out: Inhibitory efficacy, H460 cells, 2uM, given as fraction, Repeat 1-3) of 6.52% and an inhibition at 8 µM (H460 cells; Homo sapiens, NCI-H460, read-out: Inhibitory efficacy, H460 cells, 8uM, given as fraction, Repeat 1-3) of 25.3%. For the same molecule, the inhibition at 16 µM (H460 cells; Homo sapiens, NCI-H460, read-out: Inhibitory efficacy, H460 cells, 16uM, given as fraction, Repeat 1-3) was 60.6%, the Inhibitory efficacy (A549 cells; 1uM) was 0.3506 and 0.4374 and the Inhibitory efficacy (A549 cells; 2uM) was 0.4836 and 0.5124. The Inhibitory efficacy (A549 cells; 4uM) was 0.5136 and 0.5055, the Inhibitory efficacy (A549 cells; 8uM) was 0.5695 and 0.5326 and the Inhibitory efficacy (A549 cells; 16uM) was 0.5501 and 0.5711. For the same molecule, the IC50 (A549 cells; Homo sapiens, A549, 48 h, read-out: IC50 (μM) A549, CCK-8, 48 h, average ± SD of three independent experiments) was 3.77 ± 0.68 µM, the inhibition at 1 µM (A549 cells; Homo sapiens, 1uM) was 35.9% and the inhibition at 2 µM (A549 cells; Homo sapiens, 2uM) was 51.4%. The inhibition at 4 µM (A549 cells; Homo sapiens, 4uM) was 50.2%, the inhibition at 8 µM (A549 cells; Homo sapiens, 8uM) was 55.8% and the inhibition at 16 µM (A549 cells; Homo sapiens, 16uM) was 59%. The IC50 (PC-9 cells; Homo sapiens) was > 100 µM, the inhibition at 4 µM (PC-9 cells; Homo sapiens) was 11.7% and the inhibition at 16 µM (PC-9 cells; Homo sapiens) was 13.3%. For the same molecule, the Inhibitory efficacy (PC-9 cells; PC-9, 4uM, 4 µM) was 0.1333 and 0.0912, the Inhibitory efficacy (PC-9 cells; PC-9, 16uM, 16 µM) was 0.1218 and 0.1916 and the Inhibitory efficacy (H1975 cells; [1]) was 0.3092 and 0.3364. The Inhibitory efficacy (H1975 cells; 2uM, given as fraction, Repeat 1-3) was 0.3838 and 0.3364, the Inhibitory efficacy (H1975 cells; [2]) was 0.4598 and 0.4892 and the Inhibitory efficacy (H1975 cells; [3]) was 0.5696 and 0.4885. The Inhibitory efficacy (H1975 cells; [4]) was 0.5545 and 0.4835, the IC50 (H1975 cells; [5]) was 6.36 ± 4.21 µM and the inhibition at 1 µM (H1975 cells; [6]) was 39.4%. It also gave an inhibition at 2 µM (H1975 cells; Homo sapiens, NCI-H1975, read-out: Inhibitory efficacy, H1975 cells, 2uM, given as fraction, Repeat 1-3) of 33.8%, an inhibition at 4 µM (H1975 cells; [7]) of 51.4% and an inhibition at 8 µM (H1975 cells; [8]) of 54.1%. The inhibition at 16 µM (H1975 cells; [9]) was 67.4%.
